The values that follow are results of earlier work, collected in patent publication US7932388B2, “Isotopically enriched N-substituted piperazines and methods for the preparation thereof” (DH Technologies Development Pte. Ltd., priority 2004, dated 2011).

The conditions of the data set: alcohol (leaving group) of the trifluoroacetate ester; no method or conditions printed.

As for N-hydroypyrrolidinone [NHP], the pKa was 9.38.
